Test results from patent publication US20250263404A1, “AMINOPYRIDINES AS ACTIVATORS OF PI3 KINASE” (UCL Business Ltd, priority 2021, published 2025).

How the values were obtained:
PI3Kα = PI3Kα (Homo sapiens, UniProt P42336); experiment: FRET membrane binding assay, PI3Kα; type: biochemical; set-up: Full-length p110α was expressed in a complex with full-length p85α (for biochemistry and HDX-MS); 6xHis followed by TEV protease site (N); made in house; host or cells: Spodoptera frugiperda Sf9 (baculovirus co-infection; plasmids OP831 and OP809); settings: compared with pY
Description: Membrane binding assays were performed as previously published (Burke, J. E. et al. Proc Natl Acad Sci USA 109, 15259-15264 (2012)). Briefly, liposomes were prepared with 5% (w/v) brain PtdIns(4,5)P2, 20% brain phosphatidylserine, 35% brain phosphatidylethanolamine, 15% brain phosphatidylcholine, 10% cholesterol, 5% sphingomyelin, and 10% dansyl-phosphatidylserine (Avanti Polar Lipids). PI3Kα was used at a final concentration of 0.5 μM. Protein solutions were preincubated with 10 μM pY or compounds for 10 min before addition of liposomes. Liposomes were used at a final concentration of 50 μg/ml. The reaction mixture contained 5 μl enzyme, 2 μl compound and 3 μl liposomes, all diluted in 30 mM HEPES, 50 mM NaCl, pH 7.4. The reaction was allowed to proceed for 10 min at room temperature in 384 black-polystyrene plates (Corning #3544) on an orbital shaker at 200 rpm. FRET signals were measured using PHERAStar (BMG) with a 280 nm excitation filter with 350 nm and 520 nm emission filters to measure Dansyl-PS FRET emissions, respectively. FRET signal shown as I-I0, where I is the intensity at 520 nm, and 10 is the intensity at 520 nm for the solution in the absence of protein.

PI3Kβ = target: T1, PI3Kβ (Homo sapiens, UniProt P42338); experiment: ADP-Glo in vitro lipid kinase assay, PI3Kβ; type: biochemical
T1 construct: Full-length p110β/p85α and p110δ/p85α were cloned and expressed in a similar manner; Strep-tag followed by TEV protease site (N, cleaved yes); made in house; host or cells: Spodoptera frugiperda Sf9 (plasmids OP832 and OP809)
Description: The effect of 1938 on the in vitro lipid kinase activity of p85α in complex with p110α, p110β or p110δ (further referred to as PI3Kα, PI3Kβ and PI3Kδ) was tested. As a positive control, a bis-phosphorylated phosphopeptide (a PDGF-receptor-derived peptide phosphorylated on Tyr-740 and Tyr-751, hereafter referred to as pY peptide) was used to mimic engagement of the p85α SH2 domains with tyrosine-phosphorylated peptides in membrane-bound receptors and adaptor proteins, known to activate the PI3Kα complex.
Kinase reactions were performed with ADP-Glo kinase assay kit (Promega Corporation). The enzyme, substrate and compounds were diluted in reaction buffer (20 mM HEPES, 50 mM NaCl, 50 mM KCl, 3 mM MgCl2, 1 mM EGTA, 1 mM TCEP, pH 7.4). Final concentrations of PI3Kα and PI3Kδ used were 25 nM and 50 nM for PI3Kβ. […]
For compound profiling, the reaction mixture contained 2 μl PI3K enzyme, 2 μl compound and/or pY and 2 μl of liposome substrate mixed with ATP. […] Luminescence was read using a Sense (Hidex) plate reader. […]
For characterisation of the effects of 1938 on in vitro PI3K enzymology, all reactions were performed at room temperature with 384 white-polystyrene plates (Corning #3574). […] For enzyme kinetic calculations, data was expressed as velocity (pmol of ADP generated/sec). […]

PI3Kα, sequence (P42336 whole entry): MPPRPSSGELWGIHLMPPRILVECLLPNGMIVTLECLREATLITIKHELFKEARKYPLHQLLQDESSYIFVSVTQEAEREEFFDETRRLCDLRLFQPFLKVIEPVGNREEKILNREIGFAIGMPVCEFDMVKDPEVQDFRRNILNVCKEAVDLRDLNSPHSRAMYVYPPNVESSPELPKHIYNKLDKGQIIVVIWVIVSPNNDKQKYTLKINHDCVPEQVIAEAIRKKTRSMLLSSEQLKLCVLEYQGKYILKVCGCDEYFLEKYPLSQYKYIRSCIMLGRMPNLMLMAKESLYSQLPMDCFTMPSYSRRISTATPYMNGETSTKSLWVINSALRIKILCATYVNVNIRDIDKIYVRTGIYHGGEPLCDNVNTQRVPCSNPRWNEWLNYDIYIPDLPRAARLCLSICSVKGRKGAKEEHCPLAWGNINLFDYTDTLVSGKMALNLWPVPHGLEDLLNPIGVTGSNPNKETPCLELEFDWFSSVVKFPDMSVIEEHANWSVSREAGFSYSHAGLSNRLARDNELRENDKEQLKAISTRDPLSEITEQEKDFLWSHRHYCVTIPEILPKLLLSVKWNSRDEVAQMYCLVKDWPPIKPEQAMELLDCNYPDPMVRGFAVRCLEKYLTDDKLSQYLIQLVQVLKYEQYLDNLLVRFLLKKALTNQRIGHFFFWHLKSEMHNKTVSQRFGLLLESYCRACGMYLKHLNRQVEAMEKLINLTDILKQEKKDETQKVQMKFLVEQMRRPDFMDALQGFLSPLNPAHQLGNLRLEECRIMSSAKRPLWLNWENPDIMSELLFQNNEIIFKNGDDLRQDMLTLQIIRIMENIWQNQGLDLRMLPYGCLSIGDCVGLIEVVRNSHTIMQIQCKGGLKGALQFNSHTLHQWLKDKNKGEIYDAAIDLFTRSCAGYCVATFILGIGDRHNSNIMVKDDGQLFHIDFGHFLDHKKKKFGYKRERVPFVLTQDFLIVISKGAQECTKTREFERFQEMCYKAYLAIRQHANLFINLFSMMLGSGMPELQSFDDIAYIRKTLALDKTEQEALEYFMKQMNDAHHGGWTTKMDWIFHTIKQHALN
PI3Kα, sequence (P27986 whole entry partner): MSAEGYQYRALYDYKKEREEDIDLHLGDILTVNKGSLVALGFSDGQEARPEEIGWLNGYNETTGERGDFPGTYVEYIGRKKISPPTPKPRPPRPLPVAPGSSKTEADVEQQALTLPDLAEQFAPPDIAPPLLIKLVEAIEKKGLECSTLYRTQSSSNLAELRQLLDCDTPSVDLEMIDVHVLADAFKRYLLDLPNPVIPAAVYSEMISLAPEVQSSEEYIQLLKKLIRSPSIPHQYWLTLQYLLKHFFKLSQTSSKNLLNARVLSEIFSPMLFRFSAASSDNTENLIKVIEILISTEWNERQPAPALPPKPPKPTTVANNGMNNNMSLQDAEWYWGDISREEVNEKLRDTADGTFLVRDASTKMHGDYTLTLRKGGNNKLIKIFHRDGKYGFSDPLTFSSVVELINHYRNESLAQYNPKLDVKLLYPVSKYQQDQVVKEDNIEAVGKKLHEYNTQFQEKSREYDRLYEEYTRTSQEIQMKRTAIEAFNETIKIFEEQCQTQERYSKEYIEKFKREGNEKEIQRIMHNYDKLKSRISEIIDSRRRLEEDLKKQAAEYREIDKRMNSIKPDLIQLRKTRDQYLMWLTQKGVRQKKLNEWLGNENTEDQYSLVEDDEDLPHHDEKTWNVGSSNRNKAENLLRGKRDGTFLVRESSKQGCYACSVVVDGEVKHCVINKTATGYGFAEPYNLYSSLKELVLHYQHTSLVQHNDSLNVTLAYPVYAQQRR
T1 sequence (P42338 whole entry, species assumed): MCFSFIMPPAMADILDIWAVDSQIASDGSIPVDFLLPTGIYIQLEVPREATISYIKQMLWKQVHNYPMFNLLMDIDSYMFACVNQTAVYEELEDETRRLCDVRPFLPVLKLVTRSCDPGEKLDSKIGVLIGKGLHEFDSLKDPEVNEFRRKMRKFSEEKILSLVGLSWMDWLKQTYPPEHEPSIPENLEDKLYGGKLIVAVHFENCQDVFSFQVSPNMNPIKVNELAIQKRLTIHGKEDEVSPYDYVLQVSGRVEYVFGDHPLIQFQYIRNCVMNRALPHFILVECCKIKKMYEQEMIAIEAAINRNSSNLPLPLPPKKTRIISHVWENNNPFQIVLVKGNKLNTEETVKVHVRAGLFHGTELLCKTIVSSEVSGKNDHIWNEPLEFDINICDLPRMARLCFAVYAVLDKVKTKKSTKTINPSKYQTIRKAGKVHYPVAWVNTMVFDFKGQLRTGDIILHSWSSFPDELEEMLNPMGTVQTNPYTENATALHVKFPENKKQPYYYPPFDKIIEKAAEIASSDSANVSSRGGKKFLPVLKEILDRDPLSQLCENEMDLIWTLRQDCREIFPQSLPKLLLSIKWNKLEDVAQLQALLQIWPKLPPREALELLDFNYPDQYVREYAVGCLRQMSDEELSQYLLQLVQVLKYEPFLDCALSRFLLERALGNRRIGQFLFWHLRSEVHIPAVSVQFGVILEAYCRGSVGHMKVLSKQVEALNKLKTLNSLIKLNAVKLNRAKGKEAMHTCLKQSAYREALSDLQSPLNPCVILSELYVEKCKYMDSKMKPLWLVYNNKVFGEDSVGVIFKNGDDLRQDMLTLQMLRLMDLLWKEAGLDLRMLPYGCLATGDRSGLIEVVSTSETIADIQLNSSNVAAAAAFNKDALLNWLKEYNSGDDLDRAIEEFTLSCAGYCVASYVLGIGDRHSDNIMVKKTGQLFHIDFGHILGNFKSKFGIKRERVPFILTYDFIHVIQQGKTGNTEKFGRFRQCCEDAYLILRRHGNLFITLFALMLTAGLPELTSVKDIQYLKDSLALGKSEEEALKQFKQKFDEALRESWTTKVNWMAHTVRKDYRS
T1 sequence (P27986 whole entry partner, species assumed): as the sequence (P27986 whole entry partner) above

CCN1CCN(c2ccc(Nc3cc(Nc4cccc5c4N(C(C)=O)CC5)ccn3)cc2)CC1 [Example 1938]
binding of PI3Kα to lipid membranes, maximum level (PI3Kα): about half of that induced by pY | effect on in vitro lipid kinase activity of PI3Kβ (PI3Kβ): not PI3Kβ
